This is an account of results in ChEMBL document CHEMBL3507680, “University of Dundee, Gates Library screen for HepG2 cell viability”.

The data set can be described thus: Human HepG2 cell viability assay in 384 well format. Format: toxicity, cell-based. On the set-up: dose 125 nL, time 70.5 hour; cytotoxicity at 70.5 h: concentration not given beside the values. The note with it: HepG2 cells, read-out: Inhibition.
With `CCC1=NN2C(=N)/C(=C\c3cccn3-c3cccc(Cl)c3)C(=O)N=C2S1`, the cytotoxicity at 70.5 h was -0.175%.
For `O=c1c2ccccc2nc2n1CCC2O` (stereo not drawn), the cytotoxicity at 70.5 h is -12.8%.
The result for `O=S(=O)(NC[C@H]1C[C@@H]2CCN1C[C@@H]2CN1CCCCC1)c1ccccc1` reads -6.11%; that for `CCN(CC)CC[C@H]1CN(C(=O)C(C)(C)C)CC[C@H]1CC(=O)O`, -8.97%; that for `CCNC(=O)N1CC[C@@H](CC(=O)O)[C@@H](CC2=NCCc3ccccc32)C1`, -2.71%.
With `Cc1cc(O)cc2c(=O)oc(CC(C)O)cc12` (stereo not drawn) the figure was -6.88%; with `Oc1ccc([C@H]2Oc3cc(O)cc(O)c3C[C@@H]2O)cc1`, -11.9%.
With `Cc1nc(SCC(=O)Nc2ccc(C(N)=O)cc2)c(C#N)c(C)c1C` the figure was 4.83%; with `Cc1ccc(-c2noc(C(C)NS(C)(=O)=O)n2)cc1` (stereo not drawn), 21.2%; with `Cc1ccc(-c2ccc(=O)n(CC(=O)Nc3nccs3)n2)cc1`, -4.07%.
As to `CN(C)CCNCC1CCOC(C)(C)C1` (stereo not drawn), the cytotoxicity at 70.5 h is -10.1%.
With `CCN(CC)CCCNCC1CCOC(C)(C)C1` (stereo not drawn) the figure was -3.64%; with `CCN(CC)CCNc1c(-c2ccccc2)c(=O)c1=O`, -0.107%; with `COc1ccc(C)cc1NC(=O)c1c(C)cn(C)c1CC(=O)O`, -11%.
For the compound `COCCCNc1c(-c2ccc(Cl)cc2)c(=O)c1=O`, the cytotoxicity at 70.5 h turned out to be 6.7%.
With `CN1CCN(c2ccc(NS(=O)(=O)c3ccc(Cl)s3)cc2C(=O)O)CC1` the figure was -2.11%.
Turning to `O=C(c1ccc(N2CCCCCC2)nn1)N1CCc2ccccc21`, the cytotoxicity at 70.5 h was -3.2%.
With `CC(C)c1nnc(NC(=O)CSCc2cc(=O)n3ccccc3n2)s1` the figure was -4.94%; with `Cc1cccc2nc(CSCC(=O)Nc3nnc(C(C)C)s3)cc(=O)n12`, -10.6%; with `CCCNC(=O)COc1cc(C)c2c(C)nn(-c3ccc(C)cc3)c2n1`, -2.23%.
The result for `Cc1ccn(CCC(=O)NCc2ccco2)n1` reads 0.885%; that for `COc1ccccc1N1CCN(C(=O)CCn2ccc(C)n2)CC1`, 23.2%.
With `O=C(CCn1cccc1)NCc1ccc(CN2CCCCCC2)o1` the figure was 0.95%; with `CCCNC(=O)COc1cc(C)c2c(C)nn(-c3ccccc3)c2n1`, -4.53%; with `Cc1ccc(NC(=O)c2ccc(=O)n(CC(=O)NC3CCCC3)n2)cc1`, 4.71%.
Turning to `CCOCc1nc(N2CCCC2)sc1C(=O)NCc1ccco1`, the cytotoxicity at 70.5 h is -5.28%.
The result for `CCOCCCNC(=O)C1(C)CCC(=O)N1c1ccccc1F` (stereo not drawn) reads -3.95%.
As for `CCOCCCNC(=O)C1(C)CCC(=O)N1c1ccccc1OC` (stereo not drawn), the cytotoxicity at 70.5 h is -8.49%.
With `CC(=O)N1CCC2(C=C(C(=O)NC3CC3)c3ccccc32)CC1` the figure was -13.7%; with `CN(C)C[C@@H]1C[C@@H]2CN(C(=O)Cc3cccs3)CC[C@@H]2N1C`, 13.4%.
The result for `C[C@@H]1CN(C(=O)Cc2ccsc2)C[C@]12CCN(CCN(C)C)C2=O` reads -10.3%; that for `CCN1CCOCC2(CCCN(C(=O)c3cccc(O)c3)C2)C1` (stereo not drawn), -6.13%.
`CN1C(=O)CCCC12CCCN(C(=O)c1ccc3c(c1)OCO3)C2` (stereo not drawn): the cytotoxicity at 70.5 h is -15.9%.
Consider `O=C(NCC1CC1)C1CCC2(CCN(C(=O)c3cccs3)CC2)O1` (stereo not drawn), for which the cytotoxicity at 70.5 h is -15.2%.
With `COc1ccc(C(=O)N2CCCC3(CCCC(=O)N3C)C2)cc1` (stereo not drawn) the figure was -6.78%; with `COc1ncccc1CN1C[C@@H]2C[C@@H](C(=O)NCC3CC3)N(C)[C@@H]2C1`, -12.2%; with `Cn1cc(CN2CC[C@H]3[C@H]2CC(=O)N3Cc2ccncc2)cn1`, -15.4%.
With `CCN1CCOCC2(CCCN(C(=O)c3cnccn3)C2)C1` (stereo not drawn) the figure was -14.9%; with `CC(C)NC(=O)CC1COC2(CCN(Cc3ccco3)CC2)C1` (stereo not drawn), 18%.
Regarding `CN1C(=O)CCCC12CCCN(C(=O)c1cccc(C(F)(F)F)c1)C2` (stereo not drawn), the cytotoxicity at 70.5 h is -6.35%.
With `O=C([C@H]1CCCO1)N1CCC2(CCCN(CCOc3ccccc3)C2)C1` (stereo partly drawn) the figure was 20.8%; with `O=C1COC2(CCN(C(=O)c3ccoc3)CC2)CN1Cc1cccnc1`, -6.92%; with `O=C(C1CCOCC1)N1CC[C@@H](O)[C@@H]1Cc1ccccc1`, 1.56%.
Regarding `O=C1CC2(CCNCC2)C(=O)N1Cc1ccc(F)cc1`, the cytotoxicity at 70.5 h is 29.9%.
As to `CCOC(=O)N1CC2(CCNCC2)c2cc(Cl)ccc21`, the cytotoxicity at 70.5 h was -11.6%.
The result for `CCC(=O)N1C[C@@H]2CCN(c3cnccn3)C[C@@H]2C1` reads 35.4%; that for `O=C(NCC1CC1)C1CCC2(CCN(C(=O)c3ccncc3)CC2)O1` (stereo not drawn), 10.5%.
The result for `COCCN1CCC2(CCCN(Cc3ccoc3)C2)C1=O` (stereo not drawn) reads 12.2%; that for `O=C(c1ccc(F)cc1)N1CCC2(CC1)CC(N1CCOCC1)C2`, -13.1%; that for `CC[C@@H]1N(Cc2ccco2)CCC[C@]12CCC(=O)N2C`, 12.7%.
With `Cc1ccc(CN2CCC3(CC2)CC(CC(=O)NC(C)C)CO3)s1` (stereo not drawn) the figure was -7.06%; with `O=C(CC1CC1)N1CCC2(CCCN(CCOc3ccccc3)C2)C1` (stereo not drawn), -11.8%.
On to `CCOCC(=O)N1C[C@@H]2CCN(c3cnccn3)C[C@@H]2C1`, for which the cytotoxicity at 70.5 h is -3.75%.
The result for `CC(C)CC(=O)N1C[C@@H]2CCN(c3cnccn3)C[C@@H]2C1` reads -5.35%.
The result for `CC(=O)N1CCN(Cc2ccc(F)cc2)CC2(CC(=O)N(C)C2)C1` (stereo not drawn) reads 23.3%.
The result for `CCN1CCOCC12CCN(C(=O)C1CCC1)CC2` reads 14.1%; that for `CC(=O)N1CCN(Cc2ccsc2)CC2(CC(=O)N(C)C2)C1` (stereo not drawn), -12.2%; that for `O=C1C[C@H]2[C@@H](CCN2C(=O)Cc2ccsc2)N1Cc1cccnc1`, -3.76%.
Turning to `CN1[C@@H](C(=O)NCC2CC2)C[C@H]2CN(Cc3ccsc3)C[C@H]21`, the cytotoxicity at 70.5 h was 12.6%.
With `CN1[C@H](CN2CCCC2)C[C@@H]2CN(C(=O)Cc3ccsc3)CC[C@@H]21` the figure was -10.6%; with `Cc1cccc(CN2C(=O)C[C@H]3[C@@H]2CCN3Cc2nccs2)n1`, -22.3%.
Regarding `CN(Cc1cccnc1)C1CC2(CCN(c3ncccn3)CC2)C1`, the cytotoxicity at 70.5 h was -15.1%.
With `Cc1cccc(CN2C(=O)C[C@@H]3[C@@H]2CCN3Cc2ccsc2)n1` the figure was -8.36%; with `CCN1CC2(CC1=O)CN(Cc1ccccn1)CCN(C(C)=O)C2` (stereo not drawn), -10.2%; with `CC(C)C(=O)N1CCN(Cc2ccccn2)CC2(CC(=O)N(C)C2)C1` (stereo not drawn), -9.37%.
The result for `CN(C)CCN1C(=O)CCC12CCCN(C(=O)c1cccnc1)CC2` (stereo not drawn) reads -5.29%; that for `c1ccc(CN2CCCC3(CCN(Cc4cccs4)C3)C2)nc1` (stereo not drawn), -7.54%; that for `COc1cc(C2CC(=O)c3c(O)cc(O)cc3O2)ccc1O` (stereo not drawn), -8.7%.
